Columns and labels:
novel receptor = experiment: Binding of known anticonvulsant compounds to the novel receptor
Description: Alternatively, the binding affinities of non-radio-labelled test compounds may be established by measuring the amount of displacement of a radio-labelled compound which is known to bind to the receptor such as compound (A) and (B) and other compounds mentioned or covered by the aforementioned patents or applications, using conventional techniques.

[1] = molecular target: novel receptor (rat forebrain tissue); experiment: Radioligand saturation binding to the novel receptor in rat forebrain tissue homogenate; conditions: calculated from specific binding over a range of radioligand concentrations, read-out: Kd (dissociation constant)
Protocol: Adult male Wistar rats were killed and brains removed by dissection. Whole forebrain tissue was dissected out and homogenised in a buffered aqueous medium. The homogenised tissue was washed by centrifugation and resuspended in the same buffer. After centrifugation the resuspended tissue was either used fresh or stored frozen for periods of up to 3 months or more before use.
Aliquot of tissue prepared as above at a concentration of 1-10 mg protein/ml were mixed with aliquots of [^3H]-compound A dissolved in buffered medium ([…] HEPES, pH7.4). The final concentration of [^3H] compound A in the mixture was in the range of 20-50 nM. The mixture was incubated at room temperature for about 1 hour. [^3H]-compound A bound to the tissue was then separated from unbound [^3H]-compound A by filtration. This filtration was through Whatman glass fibre filters (GF/B or GF/C). The filters were then washed rapidly with ice-cold buffered medium (50 mM HEPES, pH7.4). The amount of radioactivity bound to the tissue trapped on the filters was measured by addition of liquid scintillation cocktail filters followed by counting in a liquid scintillation counter. […]

SMILES	binding to the novel receptor (novel receptor)	Kd [1] [nM]
NC(=O)N1c2ccccc2C=Cc2ccccc21 [carbamazepine]	do not bind	
CC(=O)c1ccc2c(c1)[C@H](NC(=O)c1ccc(F)cc1)[C@@H](O)C(C)(C)O2 [compound A, trans-(+)-6-Acetyl-4S-(4-fluorobenzolamino)-3,4-dihydro-2,2-dimethyl-2H-1-benzopyran-3R-ol]		40
CN1C(=O)CN=C(c2ccccc2)c2cc(Cl)ccc21 [diazepam]	do not bind	
CCC1(C)CC(=O)NC1=O (stereo not drawn) [ethosuximide]	do not bind	
NCC1(CC(=O)O)CCCCC1 [gabapentin]	do not bind	
Nc1nnc(-c2cccc(Cl)c2Cl)c(N)n1 [lamotrigine]	do not bind	
CCCC(C)C1(CC)C(=O)NC(=O)NC1=O (stereo not drawn) [pentobarbitone]	do not bind	
O=C1NC(=O)C(c2ccccc2)(c2ccccc2)N1 [phenytoin]	do not bind	
C=CC(N)CCC(=O)O (stereo not drawn) [vigabatrin]	do not bind	

From US20010027248A1, “Novel receptor” (SmithKline Beecham p.l.c., priority 1994, published 2001)
